Data from patent US20030133958A1, “External agent for the skin and whitening agent” (priority 2000, published 2003).

Experiments:
[1] = tested on: B-16 melanoma cells; experiment: Test for evaluating melanogenesis-inhibitory function (cell-whitening degree) in cell culture systems using B-16 melanoma cells; assay type: cell-based; design: key to Whitening degree: ++: The whitening degree is higher than that observed when adding 450 μg/mL of vitamin C-magnesium phosphate.; +: The whitening degree is almost identical to that observed when adding 450 μ g/mL of vitamin C-magnesium phosphate.; ±: The whitening degree is not higher than that observed when adding 450 μg/mL of vitamin C-magnesium phosphate, but higher than that of the control.; −: The whitening degree is almost identical to that observed for the control
Description: (§1) The B-16 melanoma cell is one having an ability of producing melanin and therefore, the cells naturally grown by cell culture blacken. If a substance capable of inhibiting melanogenesis is present in the cell growth system during the cell growth, the blackening of the cells is inhibited and they relatively whiten. Accordingly, the whitening effect of each candidate substance can be evaluated on the basis of the degree of whiteness observed when adding a test sample relative to the degree of blackness observed for a control. […] To evaluate this cytotoxicity, the cell survival rate observed when adding a test sample to the system is compared with that observed for the control. Thus, the substantial whitening effect can be evaluated on the basis of the results of these cell-whitening test and cytotoxicity test.
An example of such a method for evaluating the melanogenesis-inhibitory function in a cell culture system using B-16 melanoma cells comprises, for instance, the steps of dispensing 2 ml/well of a culture medium to each well of a 6-well plate, inoculating a desired amount of melanoma cells to the medium, cultivating the cells by allowing the medium to stand at 37° C. and a carbon dioxide concentration of 5%. On the following day, a solution of a test sample is added and mixed with the culture medium to a predetermined concentration and the cell cultivation is continued. After 5 days from the initiation of the cultivation, the culture medium is replaced with fresh one and the solution of the test sample is again added thereto. On the next day, the medium is removed to thus recover the cells, followed by washing them with PBS (phosphate-buffered saline) and the determination of the degree of whiteness to thus evaluate the whitening effect of the test sample. In this connection, the melanogenesis-inhibitory function is evaluated by comparing the results thus obtained with the degree of whiteness observed when the same procedures are repeated using the vitamin C-magnesium phosphate as a known whitening agent instead of the test sample solution (positive control) and that observed when the procedures are repeated without addition of any test sample (control).
A culture medium was dispensed to wells of a 6-well plate (2 mL/well each), followed by inoculation of a desired amount of B-16 melanoma cells on each well, allowing the wells to stand at 37° C. and 5% CO2 to thus cultivate the cells. On the day subsequent thereto, a sample solution prepared was added to the wells with stirring and the cultivation was continued. The culture medium was replaced with fresh one on the 5th day from the initiation of the cultivation and the sample solution was again added to the wells. On the next day, the culture medium was removed to recover the cells, followed by washing them with PBS (phosphate buffered physiological saline) and then evaluation of the cell-whitening degree In this respect, the melanogenesis-inhibitory function was evaluated by comparing the cell-whitening degree thus obtained with that observed when the same procedures used above were repeated except that vitamin C-magnesium phosphate as a known whitening agent (positive control) was substituted for the sample solution used above and that observed when the same procedures used above were repeated except that any sample was not added (control), according to the following evaluation criteria.
The evaluation criteria for the cell-whitening degree are as follows: […]

[2] = tested on: B-16 melanoma cells; experiment: Cell-survival rate (cytotoxicity) in B-16 melanoma cell culture; assay type: cell-based
Description: as §1
The cell-survival rate at each added sample concentration can be determined according to the following formula
Cell-Survival Rate (%)=(A/B)×100
Wherein A represents the viable cell count observed for the system to which a sample is added and B represents the number of cells observed for the control system.

[3] = concentration 2 ppm, B-16 melanoma cells
[4] = concentration 4 ppm, B-16 melanoma cells
[5] = concentration 6 ppm, B-16 melanoma cells
[6] = concentration 8 ppm, B-16 melanoma cells
[7] = concentration 10 ppm, B-16 melanoma cells
[8] = concentration 15 ppm, B-16 melanoma cells
[9] = concentration 25 ppm, B-16 melanoma cells
[10] = concentration 50 ppm, B-16 melanoma cells
[11] = concentration 100 ppm, B-16 melanoma cells
[12] = concentration 200 ppm, B-16 melanoma cells
[13] = concentration 300 ppm, B-16 melanoma cells
[14] = concentration 400 ppm, B-16 melanoma cells

Molecule	Whitening degree [1, 3]	Whitening degree [1, 4]	Whitening degree [1, 5]	Whitening degree [1, 6]	Whitening degree [1, 7]	Whitening degree [1, 8]	Whitening degree [1, 9]	Whitening degree [1, 10]	also measured
CC[Si](CC)(CC)OC(=O)[C@]12CCC(C)(C)C[C@H]1C1=CC[C@@H]3[C@@]4(C)C[C@@H](O[Si](CC)(CC)CC)[C@H](O[Si](CC)(CC)CC)C(C)(C)[C@@H]4CC[C@@]3(C)[C@]1(C)CC2 [Compound of Synthesis 3, Triethylsilyl Ester of 2,3-O-Di-Triethylsilyl-Maslinic Acid]	−	±	±	+	+	+	+	+	Cell-Survival Rate [2, 3]: 100%; Cell-Survival Rate [2, 4]: 100%; Cell-Survival Rate [2, 5]: 100%; Cell-Survival Rate [2, 6]: 100%; Cell-Survival Rate [2, 7]: 100%; Cell-Survival Rate [2, 8]: 100%; Cell-Survival Rate [2, 9]: 100%; Cell-Survival Rate [2, 10]: 94%
OC[C@H]1O[C@@H](Oc2ccc(O)cc2)[C@H](O)[C@@H](O)[C@@H]1O [Arbutin, reference compound]					−	−	−	±	Whitening degree [1, 11]: ±; Whitening degree [1, 12]: +; Whitening degree [1, 13]: ++; Whitening degree [1, 14]: ++; Cell-Survival Rate ([2]; mouse, 10 ppm): 100%; Cell-Survival Rate ([2]; mouse, 15 ppm): 100%; Cell-Survival Rate ([2]; mouse, 25 ppm): 100%; Cell-Survival Rate ([2]; mouse, 50 ppm): 86%; Cell-Survival Rate ([2]; mouse, 100 ppm): 69%; Cell-Survival Rate ([2]; mouse, 200 ppm): 56%; Cell-Survival Rate ([2]; mouse, 300 ppm): 41%; Cell-Survival Rate ([2]; mouse, 450 ppm): 16%
C[C@H]1[C@H](C)CC[C@]2(C)CC[C@]3(C)C(=CC[C@@H]4[C@@]5(C)CC[C@H](O)C(C)(C)[C@@H]5CC[C@]43C)[C@H]12 [α-amyrin, reference compound]									whitening effect (melanogenesis-inhibitory function), in words [1]: never show any whitening effect
CC(=O)OC[C@]12CC[C@@H](C)[C@H](C)[C@H]1C1=CC[C@@H]3[C@@]4(C)CC[C@H](OC(C)=O)C(C)(C)[C@@H]4CC[C@@]3(C)[C@]1(C)CC2 [Compound of Synthesis 6, 3,28-O-Di-Acetyl-Uvaol]	−	−	−	±	+	+	+	+	
C=C(C)[C@@H]1CC[C@]2(COC(C)=O)CC[C@]3(C)[C@H](CC[C@@H]4[C@@]5(C)CC[C@H](OC(C)=O)C(C)(C)[C@@H]5CC[C@]43C)[C@@H]12 [Compound of Synthesis 8, 3,28-O-Di-Acetyl-Betulin]	−	−	±	±	±	+	+	+	
CC(=O)OCC12CCC(C)(C)CC1C1=CCC3C4(C)CCC(OC(C)=O)C(C)(C)C4CCC3(C)C1(C)CC2 (centres unmarked) [Compound of Synthesis 5, 3,28-O-Di-Acetyl-Erythrodiol]	±	±	±	±	±	±	+	+	
O=c1cc(CO)occ1O [Kojic Acid, reference compound]					−	−	−	±	Whitening degree [1, 11]: ±; Whitening degree [1, 12]: +; Whitening degree [1, 13]: ++; Whitening degree [1, 14]: ++; Cell-Survival Rate ([2]; mouse, 10 ppm): 100%; Cell-Survival Rate ([2]; mouse, 15 ppm): 100%; Cell-Survival Rate ([2]; mouse, 25 ppm): 100%; Cell-Survival Rate ([2]; mouse, 50 ppm): 100%; Cell-Survival Rate ([2]; mouse, 100 ppm): 100%; Cell-Survival Rate ([2]; mouse, 200 ppm): 93%; Cell-Survival Rate ([2]; mouse, 300 ppm): 80%; Cell-Survival Rate ([2]; mouse, 450 ppm): 66%
C=C(C)[C@@H]1CC[C@]2(C(=O)OCC)CC[C@]3(C)[C@H](CC[C@@H]4[C@@]5(C)CC[C@H](O)C(C)(C)[C@@H]5CC[C@]43C)[C@@H]12 [Compound of Synthesis 7, Ethyl Ester of Betulinic Acid]	−	±	±	±	+	+	+	+	
CC1(C)CC[C@]2(C(=O)O)CC[C@]3(C)C(=CC[C@@H]4[C@@]5(C)C[C@@H](O)[C@H](O)C(C)(C)[C@@H]5CC[C@]43C)[C@@H]2C1 [Purified maslinic acid 2, maslinic acid]	±	+	++	++	++				whitening effect, times that observed for vitamin C-magnesium phosphate ([1]; from Table 1, positive control vitamin C-magnesium phosphate 450 ppm): about 110 times; added concentration at which the whitening effect is almost identical to that of the positive control ([1]; positive control vitamin C-magnesium phosphate 450 ppm, B-16 melanoma cells): 4 ppm; Cell-Survival Rate [2, 3]: 100%; Cell-Survival Rate [2, 4]: 100%; Cell-Survival Rate [2, 5]: 100%; Cell-Survival Rate [2, 6]: 88%; Cell-Survival Rate [2, 7]: 69%
CC1(C)CC[C@]2(C)CC[C@]3(C)C(=CC[C@@H]4[C@@]5(C)CC[C@H](O)C(C)(C)[C@@H]5CC[C@]43C)[C@@H]2C1 [β-amyrin, reference compound]									whitening effect (melanogenesis-inhibitory function), in words [1]: never show any whitening effect
CC(=O)O[C@@H]1C[C@]2(C)[C@H]3CC=C4[C@@H]5CC(C)(C)CC[C@]5(C(=O)O)CC[C@@]4(C)[C@]3(C)CC[C@H]2C(C)(C)[C@H]1OC(C)=O [Compound of Synthesis 2, 2,3-O-Di-Acetyl-Maslinic Acid]	±	±	+	++	++	++			
Ethyl Ester of 2,3-O-Di-Stearoyl-Maslinic Acid [Compound of Synthesis 4]	±	±	+	++	++	++			
C=C(C)[C@@H]1CC[C@]2(C)CC[C@]3(C)[C@H](CC[C@@H]4[C@@]5(C)CC[C@H](O)C(C)(C)[C@@H]5CC[C@]43C)[C@@H]12 [lupeol, reference compound]									whitening effect (melanogenesis-inhibitory function), in words [1]: never show any whitening effect
CC1(C)CC[C@]2(C(=O)O)CC[C@]3(C)C(=CC[C@@H]4[C@@]5(C)CC[C@H](O)C(C)(C)[C@@H]5CC[C@]43C)[C@@H]2C1 [oleanolic acid, reference compound]									whitening effect (melanogenesis-inhibitory function), in words [1]: never show any whitening effect
CCOC(=O)[C@]12CCC(C)(C)C[C@H]1C1=CC[C@@H]3[C@@]4(C)C[C@@H](O)[C@H](O)C(C)(C)[C@@H]4CC[C@@]3(C)[C@]1(C)CC2 [Compound of Synthesis 1, Ethyl Ester of Maslinic Acid]	±	+	++	++	++				
